Like-named read-outs stand apart in the source and are kept apart here.
Legend:
[1] = test system: MYB; assay: HiBiT protein abundance assay, MYB HiBiT K562 cell line; assay type: cell-based, human; details: 24 hours, top dose 10 μM
How it was run: (§1)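 Tagged-protein abundance measured by split-NanoBiT luminescence after lysis, following 24 h compound exposure (37° C; 10 μM top, 3-fold, 10 points; DMSO ≤0.25%) of HiBiT knock-in K562 cells. Percent response vs DMSO and unmodified-cell controls; 4-parameter logistic interpolation at 50% gave IC50.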

[2] = test system: Target C; assay: RT-qPCR splicing assay panel, Target C canonical junction (CJ) mRNA; assay type: cell-based, human; details: Homo sapiens
How it was run: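 A673 cells (DMEM/10% FBS) or K562 cells (IMDM/10% FBS) were treated 24 h at 37° C. with 11-point 3-fold dilutions (top 10 uM, ≤0.25% DMSO). Canonical-junction mRNA was quantified in lysates by RT-qPCR, normalized to GAPDH, GUSB or PPIA.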

[3] = test system: HTT; assay: HiBiT protein abundance assay, HTT HiBiT K562 cell line; assay type: cell-based, human; details: 24 hours, top dose 10 μM
How it was run: as §1

[4] = test system: K562 (human chronic myelogenous leukemia) cells; assay: Cell Titer Glo 2.0 cell viability assay; assay type: cell-based; details: Homo sapiens, K562, 72 h, K562 cells, 72 hours, Cell Titer Glo 2.0; read-out: K562 GI50
[5] = HiBiT K562 cell line, read-out: Effect on protein abundance, MYB (IC50 category)
[6] = canonical junction qPCR panel, Table 5, read-out: Target C (decrease in CJ mRNA levels, IC50)
[7] = HiBiT K562 cell line, read-out: Effect on protein abundance, HTT (IC50 category)
[8] = HiBiT lytic detection, modified K562 cells, read-out: Effect on protein abundance, MYB (IC50)
[9] = HiBiT lytic detection, modified K562 cells, read-out: Effect on protein abundance, HTT (IC50)
[10] = Table 5 panel, canonical junction qPCR, compound concentration having 50% response in CJ decrease, read-out: Target C IC50 (decrease in CJ mRNA levels)

SMILES	IC50 [1, 5] [nM]	IC50 [2, 6] [nM]	IC50 [3, 7] [nM]	GI50 [4] [nM]	IC50 [1, 8] [nM]	IC50 [3, 9] [nM]	IC50 [2, 10] [nM]
Cc1cn2cc(-c3ncc4c(=O)n([C@H]5CCNC6(CC6)C5)ccc4n3)cc(F)c2n1 [Compound 1458, 6-[(7S)-4-azaspiro[2.5]octan-7-yl]-2-(8-fluoro-2-methyl-imidazo[1,2-a]pyridin-6-yl)pyrido[4,3-d]pyrimidin-5-one]	< 100	100 to 1000	100 to 1000	100 to 1000	–	–	–
Cc1cn2cc(-c3ncc4c(=O)n(C56CCC(N)(CC5)C6)ccc4n3)cc(F)c2n1 [Compound 1469, 6-(4-aminonorbornane-1-yl)-2-(8-fluoro-2-methyl-imidazo[1,2-a]pyridin-6-yl)pyrido[4,3-d]pyrimidin-5-one]	–	100 to 1000	–	100 to 1000	100 to 1000	1000 to 10000	–
Cc1cn2cc(-c3ccc4c(c3)CCN(C3CCNCC3)C4=O)nc2c(C)n1 [Compound 221, 6-[6,8-dimethylimidazo[1,2-a]pyrazin-2-yl]-2-(piperidin-4-yl)-3,4-dihydroisoquinolin-1-one]	> 10000	–	> 10000	1000 to 10000	–	–	> 10000
Cn1cc2cc(-c3ncc4c(=O)n([C@@H]5CCNC5)ccc4n3)c(O)c(F)c2n1 [Compound 1466]	–	100 to 1000	–	100 to 1000	100 to 1000	100 to 1000	–
Cc1cn2nc(-c3cc(F)c4c(=O)n(C5CCN(C)CC5)cnc4c3)cc(C)c2n1 [Compound 242]	< 100	–	< 100	100 to 1000	–	–	100 to 1000
Cn1cc2ccc(-n3cnc4ccc(NC5CCNCC5)cc4c3=O)cc2n1 [Compound 2164]	–	1000 to 10000	–	> 10000	> 10000	> 10000	–
Cc1cn2nc(-n3cnc4cc(N5CCNCC5)ccc4c3=O)cc(C)c2n1 [Compound 241]	1000 to 10000	–	1000 to 10000	1000 to 10000	–	–	1000 to 10000
Cc1cn2nc(-c3ccc4c(=O)n([C@H]5CC(C)N[C@@H](C)C5)ncc4n3)cc(C)c2n1 (stereo in doubt) [Compound 1538, 2-(2,8-dimethylimidazo[1,2-b]pyridazin-6-yl)-6-[(2S,6S)-2,6-dimethyl-4-piperidyl]pyrido[2,3-d]pyridazin-5-one]	100 to 1000	100 to 1000	100 to 1000	100 to 1000	–	–	–
Cc1c(O)c(-c2ncc3c(=O)n([C@@H]4C[C@H]5COC[C@@H](C4)N5)ccc3n2)cc2cn(C)nc12 [Compound 1471]	–	100 to 1000	–	100 to 1000	100 to 1000	100 to 1000	–
Cc1c(O)c(-c2ncc3c(=O)n([C@H]4CCNC5(CC5)C4)ccc3n2)cc2cn(C)nc12 [Compound 1512]	–	100 to 1000	–	100 to 1000	< 100	< 100	–
Cc1cn2nc(-n3cnc4ccc(N5CCN(C)CC5)cc4c3=O)cc(C)c2n1 [Compound 2202]	–	1000 to 10000	–	1000 to 10000	1000 to 10000	1000 to 10000	–
Cc1cn2nc(-c3ccc4c(=O)n([C@@H]5CCN(C)[C@H](C)C5)ncc4n3)cc(C)c2n1 [Compound 1527]	–	100 to 1000	–	100 to 1000	100 to 1000	100 to 1000	–
Cn1cc2cc(-c3ccc4c(c3)CCN(C3CCNCC3)C4=O)cc(F)c2n1 [Compound 225]	1000 to 10000	–	1000 to 10000	1000 to 10000	–	–	> 10000
Cn1cc2cc(-n3cnc4ccc(N5CCNCC5)cc4c3=O)cc(F)c2n1 [Compound 2196]	–	> 10000	–	> 10000	> 10000	> 10000	–
Cc1cn2nc(-c3ccc4c(=O)n(C5CCN(CCO)C6(CC6)C5)ncc4n3)cc(C)c2n1 (stereo not shown) [Compound 1541, 2-(2,8-dimethylimidazo[1,2-b]pyridazin-6-yl)-6-[4-(2-hydroxyethyl)-4-azaspiro[2.5]octan-7-yl]pyrido-[2,3-d]pyridazin-5-one]	100 to 1000	100 to 1000	< 100	1000 to 10000	–	–	–
CN1CCC(Nc2ccc3ncn(-c4ccc5nn(C)cc5c4)c(=O)c3c2)CC1 [Compound 2171]	–	> 10000	–	> 10000	> 10000	> 10000	–
Cc1cn2cc(-c3ccc4c(c3)CCN(C3CCNCC3)C4=O)c(C)cc2n1 [Compound 218, 6-[2,7-dimethylimidazo[1,2-a]pyridin-6-yl]-2-(piperidin-4-yl)-3,4-dihydroisoquinolin-1-one]	1000 to 10000	–	1000 to 10000	1000 to 10000	–	–	1000 to 10000

SMILES	IC50 [1, 5] [nM]	IC50 [2, 6] [nM]	IC50 [3, 7] [nM]	GI50 [4] [nM]	IC50 [1, 8] [nM]	IC50 [3, 9] [nM]	IC50 [2, 10] [nM]
Cc1cn2nc(-c3ccc4c(c3)CCN(C3CCNCC3)C4=O)nc2c(C)n1 [Compound 222, 6-[6,8-dimethyl-[1,2,4]triazolo[1,5-a]pyrazin-2-yl]-2-(piperidin-4-yl)-3,4-dihydroisoquinolin-1-one]	1000 to 10000	–	1000 to 10000	1000 to 10000	–	–	1000 to 10000
Cc1cc(-c2ccc3c(=O)[nH]c(N4CCNCC4)nc3c2)cc2cn(C)nc12 [Compound 2211]	–	> 10000	–	> 10000	> 10000	> 10000	–
O=C1c2ccc(-c3cn[nH]c3)cc2CCN1C1CCNCC1 [Compound 220, 2-(piperidin-4-yl)-6-(1H-pyrazol-4-yl)-3,4-dihydroisoquinolin-1-one]	> 10000	–	> 10000	> 10000	–	–	> 10000
CN(c1ccc2ncn(-c3cc(F)c4nn(C)cc4c3)c(=O)c2c1)C1CCNCC1 [Compound 2198]	–	> 10000	–	> 10000	> 10000	> 10000	–
Cc1cn2cc(-c3ccc4c(=O)n(C5CCNC(C)(C)C5)cnc4c3)cc(F)c2n1 (stereo not shown) [Compound 237]	100 to 1000	–	100 to 1000	100 to 1000	–	–	1000 to 10000
Cc1cc(-c2ccc3ncn(C4CCNCC4)c(=O)c3c2)cc2cn(C)nc12 [Compound 2169]	–	> 10000	–	> 10000	> 10000	> 10000	–
Cn1cc2cc(-c3ncc4c(=O)n([C@H]5CCNC5)ccc4n3)c(O)c(F)c2n1 [Compound 1465]	100 to 1000	100 to 1000	100 to 1000	100 to 1000	–	–	–
Cc1cc(-c2nc3cc(N4CCNCC4)ccc3c(=O)[nH]2)cc2cn(C)nc12 [Compound 2213]	–	> 10000	–	1000 to 10000	> 10000	> 10000	–
Cc1cn2cc(-c3ccc4c(=O)n(C5CCN(C)CC5)cnc4c3)cc(F)c2n1 [Compound 207]	1000 to 10000	–	1000 to 10000	1000 to 10000	–	–	1000 to 10000
Cc1cc(-c2ccc3c(=O)[nH]c(N4CCN(C)CC4)nc3c2)cc2cn(C)nc12 [Compound 2212]	–	1000 to 10000	–	1000 to 10000	> 10000	> 10000	–
Cc1cn2cc(-c3ccc4c(=O)n(C5CCNCC5)cnc4c3)cc(F)c2n1 [Compound 205]	100 to 1000	–	100 to 1000	100 to 1000	–	–	100 to 1000
Cc1cn2cc(-c3ccc4c(=O)n(C5CCN(C)CC5)cnc4c3F)cc(F)c2n1 [Compound 227]	1000 to 10000	–	1000 to 10000	1000 to 10000	–	–	> 10000
Cc1cn2nc(-c3ccc4c(=O)n(C5CCN(CC6CC6)C6(CC6)C5)ncc4n3)cc(C)c2n1 (stereo not shown) [Compound 1543, 6-[4-(cyclopropylmethyl)-4-azaspiro[2.5]octan-7-yl]-2-(2,8-dimethylimidazo[1,2-b]pyridazin-6-yl)pyrido[2,3-d]pyridazin-5-one]	–	100 to 1000	–	100 to 1000	100 to 1000	< 100	–
Cc1c(O)c(-c2ncc3c(=O)n([C@@H]4CC[C@@H](N)C4)ccc3n2)cc2cn(C)nc12 [Compound 1476, 6-[(1R,3R)-3-aminocyclopentyl]-2-(6-hydroxy-2,7-dimethyl-indazol-5-yl)pyrido[4,3-d]pyrimidin-5-one]	–	1000 to 10000	–	100 to 1000	100 to 1000	100 to 1000	–
Cc1c(O)c(-c2ncc3c(=O)n([C@H]4CCN[C@H](C)C4)ccc3n2)cc2cn(C)nc12 [Compound 1461, 2-(6-hydroxy-2,7-dimethyl-indazol-5-yl)-6-[(2R,4S)-2-methyl-4-piperidyl]pyrido[4,3-d]pyrimidin-5-one]	< 100	100 to 1000	100 to 1000	< 100	–	–	–
Cc1cc(-c2ccc3c(c2)CCN(C2CCNCC2)C3=O)cc2cn(C)nc12 [Compound 219, 6-(2,7-dimethylindazol-5-yl)-2-(piperidin-4-yl)-3,4-dihydroisoquinolin-1-one]	100 to 1000	–	100 to 1000	1000 to 10000	–	–	1000 to 10000
Cc1cn2cc(-n3cnc4ccc(N(C)C5CCNCC5)cc4c3=O)cc(F)c2n1 [Compound 2200]	–	> 10000	–	> 10000	> 10000	> 10000	–

— patent US20250332173A1, “COMPOUNDS AND METHODS FOR MODULATING NUCLEIC ACID SPLICING” (REMIX THERAPEUTICS INC., priority 2021, published 2025)
